Laboratory results reported in patent US9096639B2, “17-hydroxy-17-pentafluorethyl-estra-4,9(10)-dien-11-acyloxyalkylene phenyl derivatives, methods for the production thereof and use thereof for treating diseases” (Bayer Intellectual Property GmbH, priority 2009, dated 2015).

Assays:
[1] = Determination of hydrolytic stability (5:1 dioxane/buffer, HPLC); assay type: physicochemical; conditions: 5:1 dioxane/buffer solution, test ended after 24 or 192 hours, read-out: Hydrolytic stability t1/2
Description: The ester to be analyzed was dissolved in each case in a 5:1 mixture of dioxane and buffer solution (pH 1.2, pH 5.0 or pH 8.0) at 23° C. At different times, the content of ester and hydrolysis products (8S,11R,13S,14S,1 7S)-17-hydroxy-11-[4-((R)-1-hydroxyethyl)phenyl]-13-methyl-17-pentafluoroethyl-1,2,6,7,8,11,12,13,14,15,16,17-dodecahydrocyclopenta[a]phenanthren-3-one and/or (8S,11R,13S,14S,17S)-17-hydroxy-11-[4-((S)-1-hydroxyethyl)phenyl]-1 3-methyl-17-pentafluoroethyl-1,2,6,7,8,11,12,13,14,15,16,17-dodecahydrocyclopenta[a]phenanthren-3-one was determined by HPLC. The test was ended after 24 hours or 192 hours.

[2] = target: T1, human progesterone receptor B (Homo sapiens, UniProt P06401); assay: Progesterone receptor transactivation test in stably transfected SK-N-MC cells (PR-B, MMTV-LUC reporter); assay type: cell-based; conditions: 0.1 nmol/l promegestone, 24 hours, read-out: PR-B IC50 (antagonistic potency)
T1 construct: expressed in transfected cells; host or cells: SK-N-MC human neuroblastoma cells, stably transfected with pRChPR-B-neo and pMMTV-LUC
T1 sequence (P06401 1-933): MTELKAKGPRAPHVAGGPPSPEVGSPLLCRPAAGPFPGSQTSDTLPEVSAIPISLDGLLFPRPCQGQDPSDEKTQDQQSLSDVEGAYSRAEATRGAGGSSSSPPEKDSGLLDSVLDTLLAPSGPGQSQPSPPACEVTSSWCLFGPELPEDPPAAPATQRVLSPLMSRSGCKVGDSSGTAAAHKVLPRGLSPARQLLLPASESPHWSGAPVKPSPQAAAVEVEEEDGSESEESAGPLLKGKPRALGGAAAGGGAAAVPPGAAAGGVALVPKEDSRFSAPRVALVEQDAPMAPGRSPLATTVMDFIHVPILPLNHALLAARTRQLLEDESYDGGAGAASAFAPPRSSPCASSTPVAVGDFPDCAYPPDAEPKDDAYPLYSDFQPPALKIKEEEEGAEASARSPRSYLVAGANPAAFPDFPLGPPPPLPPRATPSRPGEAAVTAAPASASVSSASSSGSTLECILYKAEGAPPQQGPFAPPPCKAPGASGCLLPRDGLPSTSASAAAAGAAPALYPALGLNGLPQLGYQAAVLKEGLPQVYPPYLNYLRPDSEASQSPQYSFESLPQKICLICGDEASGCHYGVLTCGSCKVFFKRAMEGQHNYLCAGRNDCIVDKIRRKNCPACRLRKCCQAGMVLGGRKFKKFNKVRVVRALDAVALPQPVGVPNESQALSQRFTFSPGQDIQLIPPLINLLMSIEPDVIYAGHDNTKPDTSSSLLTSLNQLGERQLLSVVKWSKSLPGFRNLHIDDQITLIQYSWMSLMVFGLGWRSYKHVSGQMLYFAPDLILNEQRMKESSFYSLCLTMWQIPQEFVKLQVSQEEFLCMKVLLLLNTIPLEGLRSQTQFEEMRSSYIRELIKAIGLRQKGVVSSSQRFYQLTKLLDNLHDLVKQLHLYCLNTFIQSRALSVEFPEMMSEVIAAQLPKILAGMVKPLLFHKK
Description: Progesterone receptor-antagonistic action in stable transfectants of human neuroblastoma cells (SK-N-MC cells) with the human progesterone A or progesterone B receptor and an MN-LUC reporter construct SK-N-MC cells (human neuroblastoma cells) which have been stably transfected with plasmids expressing the human progesterone receptor B (pRChPR-B-neo) or the human progesterone receptor A (pRChPR-A-neo) and a reporter construct (pMMTV-LUC) were incubated for 24 hours either in the absence (negative control) or in the presence of ascending amounts of the particular test compound (0.01 nmol/l, 0.1 nmol/l, 1 […], 100 nmol/l and […]), in order to determine the agonistic efficacy. As a positive control of the reporter gene induction, the cells were treated with the synthetic gestagen promegestone (0.01 nmol/l, 0.1 nmol/l, 1 nmol/l, 10 nmol/l, 100 nmol/l and […]). To determine the antagonistic activity, the cells were treated with 0.1 nmol/l promegestone and additionally with ascending amounts of the particular test compound (0.01 nmol/l, 0.1 nmol/l, 1 nmol/l, 10 nmol/l, 100 nmol/l and […]). The activity of the reporter gene LUC (LUC=luciferase) was determined in the cell lysates and measured as RLU (relative light units). All measurements are reported as % efficacy and as EC50 and IC50 concentrations.

[3] = Determination of stability in rat plasma; assay type: in vitro ADME; conditions: 37° C., read-out: Stability t1/2 in rat plasma (converted)
Description: A stock solution of 1.0 mg of the substance to be tested in a 9:1 mixture of acetonitrile and dimethyl sulphoxide was prepared. 20 μl of this stock solution were added at 37° C. to 1 ml of human plasma or rat plasma. To determine the content, 100 μl samples were each taken at different times. The enzyme activity was blocked by adding 300 μl of acetonitrile, the samples were centrifuged at 5000 rpm over 10 minutes and, in the supernatant, the content of ester and hydrolysis products (8S,11R,13S,14S,17S)-17-hydroxy-11-[4-((R)-1-hydroxyethyl)phenyl]-1 3-methyl-17-pentafluoroethyl-1,2,6,7,8,11,12,13,14,15,16,17-dodecahydrocyclopenta[a]phenanthren-3-one and/or (8S,11R,13S,14S,17S)-17-hydroxy-11-[4-((S)-1-hydroxyethyl)phenyl]-13-methyl-17-pentafluoroethyl-1,2,6,7,8,11,12,13,14,15,16,17-dodecahydrocyclopenta[a]phenanthrene-3-one was determined by HPLC. The concentration-time curves were used to calculate the degradation kinetics. The stability of the substance tested was reported as the half-life.

| SMILES | half-life ([1]; pH = 1.2, 23° C.) [h] | half-life ([1]; pH = 5.0, 23° C.) [h] | half-life ([1]; pH = 8.0, 23° C.) [h] | IC50 [2] [nM] | half-life [3] [h] |
| --- | --- | --- | --- | --- | --- |
| CC(OC(=O)[C@@H](NC(=O)OC(C)(C)C)C(C)C)c1ccc([C@H]2C[C@@]3(C)C(CC[C@@]3(O)C(F)(F)C(F)(F)F)C3CCC4=CC(=O)CCC4=C32)cc1 (mixture of isomers) [Example 5, (S)-2-tert-Butoxycarbonylamino-3-methylbutyric acid (RS)-1-[4-((8S,11R,-13S,14S,17S)-17-hydroxy-13-methyl-3-oxo-17-pentafluoroethyl-2,3,6,7,8,11,12,13,14,15,-16,17-dodecahydro-1H-cyclopenta[a]phenanthren-11-yl)phenyl]ethyl ester] | > 192 | > 192 | > 192 | 0.8 | 156 |
| CC(=O)O[C@H](C)c1ccc([C@H]2C[C@@]3(C)C(CC[C@@]3(O)C(F)(F)C(F)(F)F)C3CCC4=CC(=O)CCC4=C32)cc1 (mixture of isomers) [Example 1, acetic acid (RS)-1-[4-((8S,11R,13S,14S,17S)-17-hydroxy-13-methyl-3-oxo-17-pentafluoroethyl-2,3,6,7,8,11,12,13,14,15,16,17-dodecahydro-1H-cyclopenta[a]phenanthren-11-yl)phenyl]ethyl ester] | > 24 | > 24 | > 24 | 0.08 | 57.5 |
| CC(OC(=O)[C@@H](C)NC(=O)OC(C)(C)C)c1ccc([C@H]2C[C@@]3(C)[C@@H](CC[C@@]3(O)C(F)(F)C(F)(F)F)[C@@H]3CCC4=CC(=O)CCC4=C32)cc1 (mixture of isomers) [Example 6, (R)-2-tert-Butoxycarbonylaminopropionic acid (RS)-1-[4-((8S,11R,13S,-14S,17S)-17-hydroxy-13-methyl-3-oxo-17-pentafluoroethyl-2,3,6,7,8,11,12,13,14,15,16,17-dodecahydro-1H-cyclopenta[a]phenanthren-11-yl)phenyl]ethyl ester] | > 24 | > 24 | > 24 | 0.2 | 43.9 |
| CC(OC(=O)[C@H](C)NC(=O)OC(C)(C)C)c1ccc([C@H]2C[C@@]3(C)C(CC[C@@]3(O)C(F)(F)C(F)(F)F)C3CCC4=CC(=O)CCC4=C32)cc1 (mixture of isomers) [Example 7, (S)-2-tert-Butoxycarbonylaminopropionic acid (RS)-1-[4-((8S,11R,13S,-14S,17S)-17-hydroxy-13-methyl-3-oxo-17-pentafluoroethyl-2,3,6,7,8,11,12,13,14,15,16,17-dodecahydro-1H-cyclopenta[a]phenanthren-11-yl)phenyl]ethyl ester] | > 24 | > 24 | > 24 | 0.1 | 3.1 |

Other lines, results leading:

| half-life ([1]; pH = 1.2, 23° C.) [h] | half-life ([1]; pH = 5.0, 23° C.) [h] | half-life ([1]; pH = 8.0, 23° C.) [h] | IC50 [2] [nM] | half-life [3] [h] | SMILES |
| --- | --- | --- | --- | --- | --- |
| > 24 | > 24 | > 24 | 0.4 | > 1000 | CC(OC(=O)CC(C)(C)C)c1ccc([C@H]2C[C@@]3(C)C(CC[C@@]3(O)C(F)(F)C(F)(F)F)C3CCC4=CC(=O)CCC4=C32)cc1 (mixture of isomers) [Example 4, 3,3-Dimethylbutyric acid (RS)-1-[4-((8S,11R,13S,14S,17S)-17-hydroxy-13-methyl-3-oxo-17-pentafluoroethyl-2,3,6,7,8,11,12,13,14,15,16,17-dodecahydro-1H-cyclopenta[a]phenanthren-11-yl)phenyl]ethyl ester] |
| > 24 | > 24 | > 24 | 0.2 | 89 | CC(C)CC(=O)OC(C)c1ccc([C@H]2C[C@@]3(C)C(CC[C@@]3(O)C(F)(F)C(F)(F)F)C3CCC4=CC(=O)CCC4=C32)cc1 (mixture of isomers) [Example 3, 3-Methylbutyric acid (RS)-1-[4-((8S,11R,13S,14S,17S)-17-hydroxy-13-methyl-3-oxo-17-pentafluoroethyl-2,3,6,7,8,11,12,13,14,15,16,17-dodecahydro-1H-cyclopenta[a]phenanthren-11-yl)phenyl]ethyl ester] |
| > 24 | > 24 | > 24 | 0.1 | 33.4 | CC(C)C(=O)OC(C)c1ccc([C@H]2C[C@@]3(C)C(CC[C@@]3(O)C(F)(F)C(F)(F)F)C3CCC4=CC(=O)CCC4=C32)cc1 (mixture of isomers) [Example 2, Isobutyric acid (RS)-1-[4-((8S,11R,13S,14S,17S)-17-hydroxy-13-methyl-3-oxo-17-pentafluoroethyl-2,3,6,7,8,11,12,13,14,15,16,17-dodecahydro-1H-cyclopenta[a]-phenanthren-11-yl)phenyl]ethyl ester] |
